# Experimental data published in patent US20230233483A1, “COMPOUND AND METHOD FOR THE TREATMENT OF CORONAVIRUSES” (Apteeus, priority 2020, published 2023).
# System: SARS-CoV-2 of lineage B1 containing the D614G mutation; SARS-CoV-2 of lineage B1.1.7
# Format: cell-based
compound,measurement,value
"CC(C)(C)CC(C)(C)c1ccc(O)c(Cc2ccc(Cl)cc2Cl)c1 [clofoctol, 2-(2,4-Dichlorobenzyl)-4-(1,1,3,3-tetramethylbutyl)phenol]",Genomic replication of variants of SARS-CoV-2 (RT-qPCR),inhibits the genomic replication of variants of SARS-CoV-2
